From ChEMBL document CHEMBL1123560, “Novel 1H-benzimidazol-4-ols with potent 5-lipoxygenase inhibitory activity” (J Med Chem, 1987)
Blank lines part the entries; values can stand above or below the compound they belong to.

What was measured:
[1] = target: T1, Polyunsaturated fatty acid 5-lipoxygenase (Rattus norvegicus, UniProt P12527); assay: In vitro inhibition of RBL-1 5-lipoxygenase; Value ranges from 1.4-3.2; format: cell-based
T1 sequence (P12527 whole entry): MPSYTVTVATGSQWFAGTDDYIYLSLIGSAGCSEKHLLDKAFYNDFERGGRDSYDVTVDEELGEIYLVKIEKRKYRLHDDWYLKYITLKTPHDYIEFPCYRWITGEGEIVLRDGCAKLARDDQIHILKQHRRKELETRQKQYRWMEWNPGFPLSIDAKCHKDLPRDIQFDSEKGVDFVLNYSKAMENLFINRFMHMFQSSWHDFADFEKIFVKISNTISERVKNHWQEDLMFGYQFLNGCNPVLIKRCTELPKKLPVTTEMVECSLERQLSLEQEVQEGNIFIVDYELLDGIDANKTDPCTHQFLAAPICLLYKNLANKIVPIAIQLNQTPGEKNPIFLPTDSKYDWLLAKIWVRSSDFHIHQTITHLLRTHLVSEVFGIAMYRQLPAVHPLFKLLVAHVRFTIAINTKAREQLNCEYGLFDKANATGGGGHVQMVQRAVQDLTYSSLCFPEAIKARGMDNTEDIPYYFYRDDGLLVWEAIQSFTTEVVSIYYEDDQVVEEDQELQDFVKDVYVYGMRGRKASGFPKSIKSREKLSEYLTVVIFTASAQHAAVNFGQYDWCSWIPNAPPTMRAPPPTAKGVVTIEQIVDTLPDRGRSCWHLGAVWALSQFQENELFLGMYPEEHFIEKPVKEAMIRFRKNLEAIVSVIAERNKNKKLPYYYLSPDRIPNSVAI

[2] = target: T1, Polyunsaturated fatty acid 5-lipoxygenase; assay: In vitro inhibition of RBL-1 5-lipoxygenase; format: cell-based
Rattus norvegicus [3] = assay: (§1) In vivo activity against the release of SRS(slow releasing substance)-A in a rat passive intraperitoneally; format: functional; set-up: concentration or dose not given beside the values
[4] = target: T1, Polyunsaturated fatty acid 5-lipoxygenase; assay: In vitro inhibition of RBL-1 5-lipoxygenase; Value ranges from […]; format: cell-based
[5] = target: T1, Polyunsaturated fatty acid 5-lipoxygenase; assay: In vitro inhibition of RBL-1 5-lipoxygenase; Value ranges from 7.5-11.8; format: cell-based
[6] = target: T1, Polyunsaturated fatty acid 5-lipoxygenase; assay: In vitro inhibition of RBL-1 5-lipoxygenase; Value ranges from 2.46-2.63; format: cell-based
[7] = target: T1, Polyunsaturated fatty acid 5-lipoxygenase; assay: In vitro inhibition of RBL-1 5-lipoxygenase; Value ranges from 0.3-1.6; format: cell-based
Rattus norvegicus [8] = assay: Inhibition of monocyte accumulation (exudate volume) in a rat pleural exudate model of inflammation at 24 ug/kg administered perorally; format: functional; conditions: po
Rattus norvegicus [9] = assay: Inhibition of monocyte accumulation (exudate volume) in a rat pleural exudate model of inflammation at 3 ug/kg administered perorally; format: functional; conditions: po
Rattus norvegicus [10] = assay: Inhibition of monocyte accumulation (exudate volume) in a rat pleural exudate model of inflammation at 6 ug/kg administered perorally; format: functional; conditions: po
[11] = target: T1, Polyunsaturated fatty acid 5-lipoxygenase; assay: In vitro inhibition of RBL-1 5-lipoxygenase; Value ranges from 1.8-2.8; format: cell-based
[12] = target: T2, Polyunsaturated fatty acid 5-lipoxygenase (Rattus norvegicus) (UniProt P12527); assay: In vitro inhibition of RBL-1 5-lipoxygenase at 20 uM; format: cell-based
T2 sequence (whole entry): T1 sequence (P12527 whole entry)

[13] = target: T1, Polyunsaturated fatty acid 5-lipoxygenase; assay: In vitro inhibition of RBL-1 5-lipoxygenase; Value ranges from 1.0-1.5; format: cell-based
[14] = target: T1, Polyunsaturated fatty acid 5-lipoxygenase; assay: In vitro inhibition of RBL-1 5-lipoxygenase; Value ranges from 1.8-5.7; format: cell-based
Rattus norvegicus [15] = assay: as §1; format: functional
[16] = target: T1, Polyunsaturated fatty acid 5-lipoxygenase; assay: In vitro inhibition of RBL-1 5-lipoxygenase; Value ranges from 1.7-2.6; format: cell-based
[17] = target: T1, Polyunsaturated fatty acid 5-lipoxygenase; assay: In vitro inhibition of RBL-1 5-lipoxygenase; Value ranges from 1.1-1.6; format: cell-based
[18] = target: T1, Polyunsaturated fatty acid 5-lipoxygenase; assay: In vitro inhibition of RBL-1 5-lipoxygenase; Value ranges from 3.8-7.1; format: cell-based
[19] = target: T1, Polyunsaturated fatty acid 5-lipoxygenase; assay: In vitro inhibition of RBL-1 5-lipoxygenase; Value ranges from 1.3-2.8; format: cell-based
Rattus norvegicus [20] = assay: Inhibition of monocyte accumulation (DNA content) in a rat pleural exudate model of inflammation at 45 ug administered perorally; format: functional
Rattus norvegicus [21] = assay: Inhibition of monocyte accumulation (exudate volume) in a rat pleural exudate model of inflammation at 45 ug administered perorally; format: functional
[22] = target: T1, Polyunsaturated fatty acid 5-lipoxygenase; assay: In vitro inhibition of RBL-1 5-lipoxygenase; Value ranges from 0.9-4.0; format: cell-based
[23] = target: T1, Polyunsaturated fatty acid 5-lipoxygenase; assay: In vitro inhibition of RBL-1 5-lipoxygenase; Value ranges from 3.3-3.5; format: cell-based
[24] = target: T1, Polyunsaturated fatty acid 5-lipoxygenase; assay: In vitro inhibition of RBL-1 5-lipoxygenase; Value ranges from 0.4-2.2; format: cell-based
[25] = target: T1, Polyunsaturated fatty acid 5-lipoxygenase; assay: In vitro inhibition of RBL-1 5-lipoxygenase; Value ranges from 1.0-2.4; format: cell-based
[26] = target: T1, Polyunsaturated fatty acid 5-lipoxygenase; assay: In vitro inhibition of RBL-1 5-lipoxygenase; Value ranges from 4.9-11.6; format: cell-based
[27] = target: T1, Polyunsaturated fatty acid 5-lipoxygenase; assay: In vitro inhibition of RBL-1 5-lipoxygenase; Value ranges from 1.0-1.7; format: cell-based
[28] = target: T1, Polyunsaturated fatty acid 5-lipoxygenase; assay: In vitro inhibition of RBL-1 5-lipoxygenase; Value ranges from 1.9-2.4; format: cell-based
[29] = target: T1, Polyunsaturated fatty acid 5-lipoxygenase; assay: In vitro inhibition of RBL-1 5-lipoxygenase; Value ranges from 4.0-6.4; format: cell-based

IC50 [6]: 2540 nM
Compound: Cc1ccc(Cc2nc3c(O)ccc(C)c3[nH]2)cc1

IC50 [7]: 1000 nM
Compound: Cc1ccc(O)c2[nH]c(Cc3ccc(Cl)cc3)nc12

IC50 [11]: 2300 nM
Compound: Cc1ccc(O)c2[nH]c(Cc3cccc4ccccc34)nc12

IC50 [16]: 2100 nM
Compound: COc1ccc(Cc2nc3c(C)ccc(O)c3[nH]2)cc1.Cl
Inhibition (Rattus norvegicus [15]): 58%

IC50 [18]: 5200 nM
Compound: COc1ccc(Cc2nc3c(C)ccc(O)c3[nH]2)cc1OC.Cl
Inhibition (Rattus norvegicus [3]): 55%

IC50 [19]: 2100 nM
Compound: Cc1ccc(O)c2[nH]c(CCc3ccccc3)nc12

IC50 [23]: 3400 nM
Compound: COc1ccccc1Cc1nc2c(C)ccc(O)c2[nH]1.Cl
Inhibition (Rattus norvegicus [3]): 64%

IC50 [24]: 1200 nM
Compound: Cc1ccc(O)c2nc(Cc3ccccc3)[nH]c12

inhibition [12]: > 90%
Compound: Cc1ccc(O)c2[nH]c(Cc3ccc4ccccc4c3)nc12

IC50 [25]: 1700 nM
Compound: COc1cccc(Cc2nc3c(C)ccc(O)c3[nH]2)c1

IC50 [26]: 6900 nM
Compound: Cc1ccc(O)c2[nH]c(Cc3ccc(O)cc3)nc12.Cl
Inhibition (Rattus norvegicus [3]): 58%

Second part, the compound before the results:

Compound: COc1ccc(-c2nc3c(C)ccc(O)c3[nH]2)cc1
IC50 [1]: 2200 nM

Compound: CCCc1nc2c(C)ccc(O)c2[nH]1
IC50 [2]: ~10000 nM

Compound: O=C1CCN(c2ccccc2)N1 [PHENIDONE]
Inhibition (Rattus norvegicus [3]): 70%

Compound: CC1=C(C)C(=O)C(CCCCC#CCCCC#CCO)=C(C)C1=O [DOCEBENONE]
IC50 [2]: 2000 nM | Inhibition (Rattus norvegicus [3]): 77%

Compound: CCOc1ccc(Cc2nc3c(C)ccc(O)c3[nH]2)cc1
IC50 [4]: 3000 nM

Compound: COc1cc(Cc2nc3c(C)ccc(O)c3[nH]2)cc(OC)c1OC.Cl
IC50 [5]: 9700 nM | Inhibition (Rattus norvegicus [3]): 59%

Compound: Cc1cc(C(C)(C)C)c(O)c2[nH]c(C(F)(F)F)nc12
inhibition in vivo at 0.024 mg/kg (Rattus norvegicus [8]): 48% | inhibition in vivo at 0.003 mg/kg (Rattus norvegicus [9]): 52% | inhibition in vivo at 0.006 mg/kg (Rattus norvegicus [10]): 49%

Compound: Oc1cccc2[nH]c(Cc3ccccc3)nc12
IC50 [2]: 20000 nM

Compound: Cc1ccc(O)c2[nH]c(-c3cccc(C(F)(F)F)c3)nc12
inhibition [12]: > 90%

Compound: Cc1ccc(O)c2[nH]c(-c3ccccc3)nc12
IC50 [13]: 1200 nM

Compound: Cc1ccc(O)c2[nH]c(-c3ccco3)nc12
IC50 [14]: 3300 nM

Compound: Cc1cc(C(C)(C)C)c(O)c2[nH]c(Cc3ccccc3)nc12
IC50 [17]: 1300 nM

Compound: CC(Cc1ccc(O)c(O)c1)C(C)Cc1ccc(O)c(O)c1 (stereo not given) [NORDIHYDROGUAIARETIC ACID]
Inhibition (Rattus norvegicus [3]): 64%

Compound: COc1ccc(Cc2nc3c(O)cccc3[nH]2)cc1
IC50 [2]: 20000 nM

Compound: C[C@@H]1C[C@H]2[C@@H]3CCC4=CC(=O)C=C[C@]4(C)[C@@]3(F)[C@@H](O)C[C@]2(C)[C@@]1(O)C(=O)CO [DEXAMETHASONE]
Inhibition (Rattus norvegicus [20]): 71% | Inhibition (Rattus norvegicus [21]): 80%

Compound: COc1ccc(Cc2nc3c(C)cc(C(C)(C)C)c(O)c3[nH]2)cc1
IC50 [22]: 2200 nM

Compound: Cc1ccc(O)c2[nH]c(-c3ccc(N(C)C)cc3)nc12
IC50 [27]: 1300 nM

Compound: Cc1ccc(O)c2[nH]c(Cc3cccs3)nc12
IC50 [28]: 2100 nM

Compound: Cc1ccc(O)c2nc(Cc3cccnc3)[nH]c12
IC50 [29]: 5000 nM

Compound: NC1=NN(c2cccc(C(F)(F)F)c2)CC1 [BW-755C]
Inhibition (Rattus norvegicus [3]): 25%
